Common to all, as to conditions: duration of treatment 8 days
One assay concerns HDL-cholesterol. Nature of the assay: Test A: In vivo HDL-cholesterol test. An excerpt: (§1) a) Test A: In vivo HDL-cholesterol test: The test is effected according to the method described in the literature, e.g. in EP 528 146 Other conventional methods may be used to assay the blood serum samples for HDL-cholesterol and total triglycerides content.
The subject of a further assay is total triglycerides. Description: Test A: In vivo HDL-cholesterol test, blood serum samples assayed for total triglycerides content.
Excerpt: as §1

The test system of another assay is Apo A-I. Nature of the assay: Test B: Apo A-I test. Type of assay: in vivo. An excerpt:
b) Test B: Apo A-I test: The test is effected as described in the literature, e.g. in EP 528 146.

Regarding `Cc1ccc(C)c(OCCCC(C)(C)C(=O)O)c1` [Gemfibrozil], the “HDL-cholesterol level increase (%)” value in the assay with HDL-cholesterol (average dose 53 mg/kg/day) came out at 211%. Further, the “Total triglyceride level decrease (%)” value in the assay on total triglycerides (average dose 53 mg/kg/day) is recorded as 15%. Besides, in the assay with Apo A-I (average dose 53 mg/kg/day), the “Apo-I level increase (%)” value was found to be 88%.
As to `CC1=CSC2=Nc3ccccc3[C@@H](c3ccccc3)N12` [Example 1, R-isomer (free base), (R)-3-Methyl-5-phenyl-5H-thiazolo[2,3-b]quinazoline], the “HDL-cholesterol level increase (%)” value in the assay with HDL-cholesterol (average dose 83 mg/kg/day) is reported as 402%. In addition, the “Total triglyceride level decrease (%)” value in the assay on total triglycerides (average dose 83 mg/kg/day) was 15%. Further, the “Apo-I level increase (%)” value in the assay on Apo A-I (average dose 83 mg/kg/day) is recorded as 62%.

The values are drawn from patent EP0564397A1, “Antiatherosclerotic substituted phenylquinazoline derivatives” (SANDOZ LTD., priority 1992, dated 1993).
